In patent US12528826B2, “[1,4]oxazepino[2,3-c]quinolinone derivatives as BCL6 inhibitors” (Cancer Research Technology Limited, priority 2019, dated 2026):

Biological target: T1, Trx-6×His-BCL6 (human BCL6 BTB domain covering amino-acid sequence 5-129) (Homo sapiens, UniProt P41182)
T1 construct: made in house
Test: HTRF assay (BCL6 / BCOR peptide)
Assay type: binding
Conditions: 1 nM Trx-6×His-BCL6, 300 nM BCOR-AF633 peptide, 2 hours incubation at room temperature
Description: After 2 hours incubation at room temperature the plate was read on a Pherastar FSX (BMG Labtech) plate reader equipped with 337 nm laser excitation filter, a first emission filter at 620 nm and a second emission filter at 665 nm. The % inhibition at each concentration was calculated by normalising FRET ratio to the appropriate high (DMSO with all reagents) and low (DMSO without BCL6) controls.

Row | HTRF avg pIC50 | Compound
1 | 8.28 | (S)-10-((5-chloro-2-((3R,5R)-3-fluoro-5-hydroxypiperidin-1-yl)pyrimidin-4-yl)amino)-2-cyclopropyl-3,3-difluoro-7-methyl-1,2,3,4-tetrahydro-[1,4]oxazepino[2,3-c]quinolin-6(7H)-one:(S)-10-((5-chloro-2-((3S,5S)-3-fluoro-5-hydroxypiperidin-1-yl)pyrimidin-4-yl)amino)-2-cyclopropyl-3,3-difluoro-7-methyl-1,2,3,4-tetrahydro-[1,4]oxazepino[2,3-c]quinolin-6(7H)-one(1:1) [Example 11g]

Same assay, conditions: 1 nM Trx-6×His-BCL6, 300 nM BCOR-AF633 peptide, 2 hours incubation at room temperature; read-out: HTRF avg pIC50 (converted)

Row | IC50 [nM] | Compound
2 | 10.7 | CN(C)c1ncc(Cl)c(Nc2ccc3c(c2)c2c(c(=O)n3C)OCC(F)(F)[C@H](C3CC3)N2)n1 [Example 8a, (S)-10-((5-chloro-2-(dimethylamino)pyrimidin-4-yl)amino)-2-cyclopropyl-3,3-difluoro-7-methyl-1,2,3,4-tetrahydro-[1,4]oxazepino[2,3-c]quinolin-6(7H)-one]
3 | 7.59 | CC1CN(c2ncc(Cl)c(Nc3ccc4c(c3)c3c(c(=O)n4C)OCC(F)(F)[C@H](C4CC4)N3)n2)C1 [Example 11o, (S)-10-((5-chloro-2-(3-methylazetidin-1-yl)pyrimidin-4-yl)amino)-2-cyclopropyl-3,3-difluoro-7-methyl-1,2,3,4-tetrahydro-[1,4]oxazepino[2,3-c]quinolin-6(7H)-one]
4 | 2 | CC1CC(C(=O)N2CCC2)CN(c2ncc(Cl)c(Nc3ccc4c(c3)c3c(c(=O)n4C)OCC(F)(F)[C@H](C4CC4)N3)n2)C1 (stereo partly drawn) [Example 12x30, (2S)-10-((2-(3-(azetidine-1-carbonyl)-5-methylpiperidin-1-yl)-5-chloropyrimidin-4-yl)amino)-2-cyclopropyl-3,3-difluoro-7-methyl-1,2,3,4-tetrahydro-[1,4]oxazepino[2,3-c]quinolin-6(7H)-one]
5 | 1.29 | Cn1c(=O)c2c(c3cc(Nc4nc(N5CCN6C(=O)CCC6C5)ncc4Cl)ccc31)N[C@@H](C1CC1)C(F)(F)CO2 (mixture of isomers) [Example 12i, (S)-10-((5-chloro-2-((R)-6-oxohexahydropyrrolo[1,2-a]pyrazin-2(1H)-yl)pyrimidin-4-yl)amino)-2-cyclopropyl-3,3-difluoro-7-methyl-1,2,3,4-tetrahydro-[1,4]oxazepino[2,3-c]quinolin-6(7H)-one:(S)-10-((5-chloro-2-((S)-6-oxohexahydropyrrolo[1,2-a]pyrazin-2(1H)-yl)pyrimidin-4-yl)amino)-2-cyclopropyl-3,3-difluoro-7-methyl-1,2,3,4-tetrahydro-[1,4]oxazepino[2,3-c]quinolin-6(7H)-one (1:1)]
6 | 1.62 | CC(=O)N1C2CCC1CN(c1ncc(Cl)c(Nc3ccc4c(c3)c3c(c(=O)n4C)OCC(F)(F)[C@H](C4CC4)N3)n1)C2 (single isomer, unassigned) [Example 7b]
7 | 6.17 | Cn1c(=O)c2c(c3cc(Nc4nc(N5CCC(F)CC5)ncc4Cl)ccc31)N[C@@H](C1CC1)C(F)(F)CO2 [Example 12x42, (S)-10-((5-chloro-2-(4-fluoropiperidin-1-yl)pyrimidin-4-yl)amino)-2-cyclopropyl-3,3-difluoro-7-methyl-1,2,3,4-tetrahydro-[1,4]oxazepino[2,3-c]quinolin-6(7H)-one]
8 | 10.7 | Cn1c(=O)c2c(c3cc(Nc4nc(N5CCCC(F)C5)ncc4Cl)ccc31)N[C@@H](C1CC1)C(F)(F)CO2 (stereo partly drawn) [Example 12x40, (2S)-10-((5-chloro-2-(3-fluoropiperidin-1-yl)pyrimidin-4-yl)amino)-2-cyclopropyl-3,3-difluoro-7-methyl-1,2,3,4-tetrahydro-[1,4]oxazepino[2,3-c]quinolin-6(7H)-one]
9 | 44.7 | Cn1c(=O)c2c(c3cc(Nc4nc(N5CCCC6(CC6)C5)ncc4Cl)ccc31)N[C@@H](C1CC1)C(F)(F)CO2 [Example 11l, (S)-10-((5-chloro-2-(5-azaspiro[2.5]octan-5-yl)pyrimidin-4-yl)amino)-2-cyclopropyl-3,3-difluoro-7-methyl-1,2,3,4-tetrahydro-[1,4]oxazepino[2,3-c]quinolin-6(7H)-one]
10 | 3.63 | Cn1c(=O)c2c(c3cc(Nc4nc(NCC(C)(C)O)ncc4Cl)ccc31)N[C@@H](C1CC1)C(F)(F)CO2 [Example 1d, (S)-10-((5-chloro-2-((2-hydroxy-2-methylpropyl)amino)pyrimidin-4-yl)amino)-2-cyclopropyl-3,3-difluoro-7-methyl-1,2,3,4-tetrahydro-[1,4]oxazepino[2,3-c]quinolin-6(7H)-one]
11 | 2.75 | CN1CCCN(c2ncc(Cl)c(Nc3ccc4c(c3)c3c(c(=O)n4C)OCC(F)(F)[C@H](C4CC4)N3)n2)CC1 [Example 11a, (2S)-10-[[5-chloro-2-(4-methyl-1,4-diazepan-1-yl)pyrimidin-4-yl]amino]-2-cyclopropyl-3,3-difluoro-7-methyl-2,4-dihydro-1H-[1,4]oxazepino[2,3-c]quinolin-6-one]
12 | 11.2 | CC1CCCN(c2ncc(Cl)c(Nc3ccc4c(c3)c3c(c(=O)n4C)OCC(F)(F)[C@H](C4CC4)N3)n2)C1CO (mixture of isomers) [Example 12x46, (2S)-10-((5-chloro-2-(2-(hydroxymethyl)-3-methylpiperidin-1-yl)pyrimidin-4-yl)amino)-2-cyclopropyl-3,3-difluoro-7-methyl-1,2,3,4-tetrahydro-[1,4]oxazepino[2,3-c]quinolin-6(7H)-one]
13 | 26.9 | C[C@H]1CCN(c2ncc(Cl)c(Nc3ccc4c(c3)c3c(c(=O)n4C)OCC(F)(F)[C@H](C4CC4)N3)n2)C1 [Example 12x01, (S)-10-((5-chloro-2-((S)-3-methylpyrrolidin-1-yl)pyrimidin-4-yl)amino)-2-cyclopropyl-3,3-difluoro-7-methyl-1,2,3,4-tetrahydro-[1,4]oxazepino[2,3-c]quinolin-6(7H)-one]
14 | 3.72 | Cn1c(=O)c2c(c3cc(Nc4nc(N5CCC(F)(F)C(O)C5)ncc4Cl)ccc31)N[C@@H](C1CC1)C(F)(F)CO2 (mixture of isomers) [Example 9e, (S)-10-((5-chloro-2-((R)-4,4-difluoro-3-hydroxypiperidin-1-yl)pyrimidin-4-yl)amino)-2-cyclopropyl-3,3-difluoro-7-methyl-1,2,3,4-tetrahydro-[1,4]oxazepino[2,3-c]quinolin-6(7H)-one; (S)-10-((5-chloro-2-((S)-4,4-difluoro-3-hydroxypiperidin-1-yl)pyrimidin-4-yl)amino)-2-cyclopropyl-3,3-difluoro-7-methyl-1,2,3,4-tetrahydro-[1,4]oxazepino[2,3-c]quinolin-6(7H)-one]
15 | 11.7 | Cn1c(=O)c2c(c3cc(Nc4nc(N5CCOCC5)ncc4F)ccc31)N[C@@H](C1CC1)C(F)(F)CO2 [Example 13p06, (S)-2-cyclopropyl-3,3-difluoro-10-((5-fluoro-2-morpholinopyrimidin-4-yl)amino)-7-methyl-1,2,3,4-tetrahydro-[1,4]oxazepino[2,3-c]quinolin-6(7H)-one]
16 | 25.7 | C[C@@H]1CCCN(c2ncc(Cl)c(Nc3ccc4c(c3)c3c(c(=O)n4C)OCC(F)(F)[C@H](C4CC4)N3)n2)C1 [Example 1l, (S)-10-((5-chloro-2-((R)-3-methylpiperidin-1-yl)pyrimidin-4-yl)amino)-2-cyclopropyl-3,3-difluoro-7-methyl-1,2,3,4-tetrahydro-[1,4]oxazepino[2,3-c]quinolin-6(7H)-one]
17 | 2.4 | C[C@H]1C[C@@H](O)CN(c2ncc(F)c(Nc3ccc4c(c3)c3c(c(=O)n4C)OCC(F)(F)[C@H](C4CC4)N3)n2)C1 [Example 2a, (S)-2-cyclopropyl-3,3-difluoro-10-((5-fluoro-2-((3R,5S)-3-hydroxy-5-methylpiperidin-1-yl)pyrimidin-4-yl)amino)-7-methyl-1,2,3,4-tetrahydro-[1,4]oxazepino[2,3-c]quinolin-6(7H)-one]
18 | 14.8 | Cn1c(=O)c2c(c3cc(Nc4nc(N5CC(C)(C)C5)ncc4Cl)ccc31)N[C@@H](C1CC1)C(F)(F)CO2 [Example 11n, (S)-10-((5-chloro-2-(3,3-dimethylazetidin-1-yl)pyrimidin-4-yl)amino)-2-cyclopropyl-3,3-difluoro-7-methyl-1,2,3,4-tetrahydro-[1,4]oxazepino[2,3-c]quinolin-6(7H)-one]
19 | 46.8 | CCC1CCN(c2ncc(Cl)c(Nc3ccc4c(c3)c3c(c(=O)n4C)OCC(F)(F)[C@H](C4CC4)N3)n2)C1 (mixture of isomers) [Example 11y, (S)-10-((5-chloro-2-((R)-3-ethylpyrrolidin-1-yl)pyrimidin-4-yl)amino)-2-cyclopropyl-3,3-difluoro-7-methyl-1,2,3,4-tetrahydro-[1,4]oxazepino[2,3-c]quinolin-6(7H)-one:(S)-10-((5-chloro-2-((S)-3-ethylpyrrolidin-1-yl)pyrimidin-4-yl)amino)-2-cyclopropyl-3,3-difluoro-7-methyl-1,2,3,4-tetrahydro-[1,4]oxazepino[2,3-c]quinolin-6(7H)-one (1:1)]

Row | Compound | IC50 [nM]
20 | C[C@@H]1C[C@@H](O)CN(c2ncc(Cl)c(Nc3ccc4c(c3)c3c(c(=O)n4C)OCC(F)(F)[C@H](C4CC4)N3)n2)C1 [Example 9zb, (S)-10-((5-chloro-2-((3R,5R)-3-hydroxy-5-methylpiperidin-1-yl)pyrimidin-4-yl)amino)-2-cyclopropyl-3,3-difluoro-7-methyl-1,2,3,4-tetrahydro-[1,4]oxazepino[2,3-c]quinolin-6(7H)-one] | 9.77
